In patent US7445894B2, “Compositions and methods for detection and isolation of phosphorylated molecules” (priority 2002, dated 2008):

Molecular target: T1, β-casein (Bos taurus, UniProt P02666)
T1 sequence (P02666 16-224): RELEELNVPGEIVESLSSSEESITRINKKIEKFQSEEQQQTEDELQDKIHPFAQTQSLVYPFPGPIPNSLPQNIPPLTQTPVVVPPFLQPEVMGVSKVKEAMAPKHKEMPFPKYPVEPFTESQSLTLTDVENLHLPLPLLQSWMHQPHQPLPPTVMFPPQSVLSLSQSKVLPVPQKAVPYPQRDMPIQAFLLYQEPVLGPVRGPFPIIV
Assay: Phosphoprotein detection on HydroGel microarray
Settings: pentaphosphorylated protein, binding solution with gallium chloride
Protocol: The protein was loaded in a two-fold dilution series from 166 pg-0.324 pg on the microarray.
Four specific, purified proteins including β-casein, ovalbumin, pepsin and bovine serum albumin were arrayed from a source plate (384 well plate) at a concentration of 0.975 μg/mL-0.5 mg/mL in water, onto HydroGel coated slides (Perkin Elmer), using the BioChip Arrayer™ (Packard Instrument Co., Meriden, Conn.). The BioChip Arrayer™ utilizes a PiezoTip™ Dispenser consisting of 4 glass capillaries. Proteins were dispensed from the PiezoTip™ by droplets 333 pL in volume to create array spots 175 microns in diameter with a 500 micron horizontal and vertical pitch (pitch=center to center spacing of spots). Proteins were arrayed in duplicate in four rows, with 10 dilution points, resulting in an array of 160 spots. The resulting concentration range of the array was 166.5 pg/spot-0.325 pg/spot. For detection of phosphoproteins, slides were incubated for 1 hour on a rotator in 1 μM of Compound 2, in buffer containing 0.5 M NaCl, 20% 1,2-propanediol, 1 μM GaCl3, and 0.05 M NaOAc, pH 4.0. Slides were then washed for 1 hour on a rotator in 0.05 M NaOAc, pH 4.0, containing 10% methanol followed by a 15 minute water wash. […] Phosphate content per protein was determined to be as follows: β-casein, five phosphates; ovalbumin, two phosphates; pepsin, one phosphate; and BSA, no phosphates.

Substance: Rhod-5F [Compound 2]
- amount detected on HydroGel microarray: 0.65 pg
